In ChEMBL document CHEMBL4507262, “Data for DCP probe A-1596586” (2021):

Legend:
[1] = target: Tumor necrosis factor (Homo sapiens) (UniProt P01375); assay: TNF-alpha (h) Eurofins-Cerep binding assay; parameters: ligand concentration 0.1 nM; details: filed as agonist, Compound concentration 10.0 uM
[2] = target: Serine/threonine-protein kinase 4 (Homo sapiens) (UniProt Q13043); details: Compound concentration 1000.0 nM
[3] = target: Sigma intracellular receptor 2 (Homo sapiens, UniProt Q5BJF2); details: Compound concentration 10.0 uM
[4] = target: Sodium-dependent serotonin transporter (Homo sapiens) (UniProt P31645); assay: 5-HT transporter (h) Eurofins-Cerep binding assay; parameters: ligand concentration 2 nM; details: filed as antagonist, Compound concentration 10.0 uM
[5] = target: Fibroblast growth factor receptor 2 (Homo sapiens) (UniProt P21802); details: Compound concentration 1000.0 nM
[6] = target: Translocator protein (Rattus norvegicus) (UniProt P16257); assay: BZD (peripheral) Eurofins-Cerep binding assay; parameters: ligand concentration 0.2 nM; details: filed as antagonist, Compound concentration 10.0 uM
[7] = target: Mitogen-activated protein kinase kinase kinase 2 (Homo sapiens) (UniProt Q9Y2U5); details: Compound concentration 1000.0 nM
[8] = target: Muscarinic acetylcholine receptor M3 (Homo sapiens) (UniProt P20309); details: Compound concentration 10.0 uM
[9] = target: Prostaglandin E2 receptor EP2 subtype (Homo sapiens) (UniProt P43116); assay: EP2 (h) Eurofins-Cerep binding assay; parameters: ligand concentration 3 nM; details: filed as agonist, Compound concentration 10.0 uM
[10] = target: Tyrosine-protein kinase receptor Tie-1 (Homo sapiens) (UniProt P35590); details: Compound concentration 1000.0 nM
[11] = target: Cyclin-G-associated kinase (Homo sapiens) (UniProt O14976); details: Compound concentration 1000.0 nM
[12] = target: Serine/threonine-protein kinase PRP4 homolog (Homo sapiens) (UniProt Q13523); details: Compound concentration 1000.0 nM
[13] = system: Proto-oncogene tyrosine-protein kinase receptor Ret (Homo sapiens), P07949 [M918T]; details: Compound concentration 1000.0 nM
[14] = target: LIM domain kinase 2 (Homo sapiens) (UniProt P53671); details: Compound concentration 1000.0 nM
[15] = target: GABA-A receptor; anion channel (Rattus norvegicus) (UniProt O09028+P15431+P18506+P18508+P19969+P20236+P23574+P23576+P28471+P28473+P30191+P62813+P63079+P63138+Q91ZM7+Q9ES14); assay: Cl- channel (GABA-gated) Eurofins-Cerep binding assay; assay type: protein-complex assay; parameters: ligand concentration 3 nM; details: filed as antagonist, Compound concentration 10.0 uM
[16] = target: Protein kinase C iota type (Homo sapiens) (UniProt P41743); details: Compound concentration 1000.0 nM
[17] = target: Phosphatidylinositol 4,5-bisphosphate 3-kinase catalytic subunit beta isoform (Homo sapiens) (UniProt P42338); details: Compound concentration 1000.0 nM
[18] = system: Mast/stem cell growth factor receptor Kit (Homo sapiens), P10721 [L576P]; details: Compound concentration 1000.0 nM
[19] = target: Estrogen receptor (Homo sapiens) (UniProt P03372); assay: Estrogen ER alpha (h) Eurofins-Cerep binding assay; parameters: ligand concentration 0.5 nM; details: filed as agonist, Compound concentration 10.0 uM
[20] = target: 3-phosphoinositide-dependent protein kinase 1 (Homo sapiens) (UniProt O15530); details: Compound concentration 1000.0 nM
[21] = system: Receptor-type tyrosine-protein kinase FLT3 (Homo sapiens), P36888 [D835V]; details: Compound concentration 1000.0 nM
[22] = target: Myosin-IIIa (Homo sapiens) (UniProt Q8NEV4); details: Compound concentration 1000.0 nM
Sequence of Myosin-IIIa (Homo sapiens) (Q8NEV4 whole entry): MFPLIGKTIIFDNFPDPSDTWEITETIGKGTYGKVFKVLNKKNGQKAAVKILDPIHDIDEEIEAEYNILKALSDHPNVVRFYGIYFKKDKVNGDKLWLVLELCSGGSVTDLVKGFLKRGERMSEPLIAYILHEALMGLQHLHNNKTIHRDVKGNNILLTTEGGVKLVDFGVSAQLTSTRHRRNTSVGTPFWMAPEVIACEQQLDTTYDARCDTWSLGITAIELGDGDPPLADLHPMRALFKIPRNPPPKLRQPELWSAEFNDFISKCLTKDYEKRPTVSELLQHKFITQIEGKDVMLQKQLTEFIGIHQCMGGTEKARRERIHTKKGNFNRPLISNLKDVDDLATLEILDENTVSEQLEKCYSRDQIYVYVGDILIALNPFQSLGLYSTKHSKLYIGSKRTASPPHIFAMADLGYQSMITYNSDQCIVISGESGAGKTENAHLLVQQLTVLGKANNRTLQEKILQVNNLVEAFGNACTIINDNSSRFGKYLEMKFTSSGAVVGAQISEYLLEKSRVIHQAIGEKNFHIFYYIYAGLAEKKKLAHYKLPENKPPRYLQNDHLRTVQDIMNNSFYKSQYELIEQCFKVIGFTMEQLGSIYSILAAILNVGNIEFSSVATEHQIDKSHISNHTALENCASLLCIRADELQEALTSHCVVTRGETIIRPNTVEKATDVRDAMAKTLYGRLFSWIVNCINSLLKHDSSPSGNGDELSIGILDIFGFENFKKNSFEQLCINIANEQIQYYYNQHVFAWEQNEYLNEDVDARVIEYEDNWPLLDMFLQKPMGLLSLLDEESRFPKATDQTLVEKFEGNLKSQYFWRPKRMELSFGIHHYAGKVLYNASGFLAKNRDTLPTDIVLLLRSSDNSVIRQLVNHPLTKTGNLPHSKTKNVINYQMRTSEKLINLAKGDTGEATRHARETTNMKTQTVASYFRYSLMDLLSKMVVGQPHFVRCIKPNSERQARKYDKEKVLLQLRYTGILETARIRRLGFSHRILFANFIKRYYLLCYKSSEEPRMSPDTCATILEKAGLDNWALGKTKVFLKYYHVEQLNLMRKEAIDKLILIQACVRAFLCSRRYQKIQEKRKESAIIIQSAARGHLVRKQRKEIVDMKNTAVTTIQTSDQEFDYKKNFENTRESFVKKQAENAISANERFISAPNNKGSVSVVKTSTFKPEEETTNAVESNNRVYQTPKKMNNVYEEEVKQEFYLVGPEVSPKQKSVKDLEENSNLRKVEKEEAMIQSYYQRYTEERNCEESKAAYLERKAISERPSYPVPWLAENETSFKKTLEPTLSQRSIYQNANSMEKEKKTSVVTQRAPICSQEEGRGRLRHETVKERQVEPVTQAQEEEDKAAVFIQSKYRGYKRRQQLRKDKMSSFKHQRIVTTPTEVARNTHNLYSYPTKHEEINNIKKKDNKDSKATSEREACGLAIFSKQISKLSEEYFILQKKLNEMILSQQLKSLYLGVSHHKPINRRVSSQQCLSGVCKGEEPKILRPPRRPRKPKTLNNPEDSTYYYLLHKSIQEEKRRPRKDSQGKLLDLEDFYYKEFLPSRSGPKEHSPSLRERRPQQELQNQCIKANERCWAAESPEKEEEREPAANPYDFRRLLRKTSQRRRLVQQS

[23] = target: Focal adhesion kinase 1 (Homo sapiens) (UniProt Q05397); details: Compound concentration 1000.0 nM
[24] = target: 5-hydroxytryptamine receptor 2B (Homo sapiens) (UniProt P41595); assay: 5-HT2B (h) Eurofins-Cerep binding assay; parameters: ligand concentration 0.2 nM; details: filed as agonist, Compound concentration 10.0 uM
[25] = system: Epidermal growth factor receptor (Homo sapiens), P00533 [UNDEFINED MUTATION]; details: Compound concentration 1000.0 nM
Sequence of Epidermal growth factor receptor (Homo sapiens), P00533 [UNDEFINED MUTATION] (P00533 whole entry, looked up, change not shown): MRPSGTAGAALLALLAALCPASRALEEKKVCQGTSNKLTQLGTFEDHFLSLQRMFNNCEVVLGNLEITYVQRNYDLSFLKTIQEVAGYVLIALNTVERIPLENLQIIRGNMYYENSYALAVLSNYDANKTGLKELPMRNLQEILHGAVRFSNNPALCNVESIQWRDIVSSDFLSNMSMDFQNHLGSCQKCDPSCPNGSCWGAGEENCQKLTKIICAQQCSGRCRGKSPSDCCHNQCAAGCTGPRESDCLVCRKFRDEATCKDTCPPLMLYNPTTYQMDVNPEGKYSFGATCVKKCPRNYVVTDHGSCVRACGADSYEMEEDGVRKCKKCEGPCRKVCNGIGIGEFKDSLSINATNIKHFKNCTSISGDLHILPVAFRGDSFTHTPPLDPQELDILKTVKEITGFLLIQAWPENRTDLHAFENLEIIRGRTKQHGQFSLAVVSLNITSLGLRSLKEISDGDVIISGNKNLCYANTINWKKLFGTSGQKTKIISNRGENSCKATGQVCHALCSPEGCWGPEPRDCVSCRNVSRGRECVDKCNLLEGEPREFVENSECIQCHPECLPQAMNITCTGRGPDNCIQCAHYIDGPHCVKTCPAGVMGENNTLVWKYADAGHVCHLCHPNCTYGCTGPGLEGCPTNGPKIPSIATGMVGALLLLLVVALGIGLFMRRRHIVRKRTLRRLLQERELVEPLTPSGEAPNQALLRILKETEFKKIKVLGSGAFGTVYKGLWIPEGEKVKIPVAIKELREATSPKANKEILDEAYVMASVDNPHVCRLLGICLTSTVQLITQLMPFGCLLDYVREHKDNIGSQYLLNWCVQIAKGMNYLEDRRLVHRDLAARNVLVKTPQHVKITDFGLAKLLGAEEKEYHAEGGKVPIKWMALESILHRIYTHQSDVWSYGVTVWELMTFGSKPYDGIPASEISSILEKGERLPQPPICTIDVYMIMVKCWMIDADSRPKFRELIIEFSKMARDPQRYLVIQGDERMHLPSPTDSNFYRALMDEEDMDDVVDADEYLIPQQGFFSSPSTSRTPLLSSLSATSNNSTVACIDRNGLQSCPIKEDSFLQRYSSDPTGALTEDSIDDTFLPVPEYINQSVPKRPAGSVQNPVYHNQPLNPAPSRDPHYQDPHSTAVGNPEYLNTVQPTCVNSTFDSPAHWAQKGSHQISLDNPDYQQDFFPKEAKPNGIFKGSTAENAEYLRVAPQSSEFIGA

[26] = target: Histamine H1 receptor (Homo sapiens) (UniProt P35367); details: Compound concentration 10.0 uM
[27] = target: MAO-A (amine oxidase [flavin-containing] A) (Rattus norvegicus, UniProt P21396); assay: MAO-A Eurofins-Cerep binding assay; parameters: incubation time 60 min, incubation temperature 37°C, ligand concentration 10 nM; details: rat cerebral cortex, probe [3H]Ro 41-1049 (10 nM), compound concentration 10 uM, read-out: % Inhibition of Control Specific Binding (Mean n=2)
[28] = target: Serine/threonine-protein kinase VRK2 (Homo sapiens) (UniProt Q86Y07); details: Compound concentration 1000.0 nM
[29] = system: Mast/stem cell growth factor receptor Kit (Homo sapiens), P10721 [V559D]; details: Compound concentration 1000.0 nM
[30] = target: Phosphatidylinositol 4,5-bisphosphate 3-kinase catalytic subunit delta isoform (Homo sapiens) (UniProt O00329); details: Compound concentration 1000.0 nM
[31] = target: Muscle, skeletal receptor tyrosine-protein kinase (Homo sapiens) (UniProt O15146); details: Compound concentration 1000.0 nM
[32] = target: Serine/threonine-protein kinase Nek11 (Homo sapiens) (UniProt Q8NG66); details: Compound concentration 1000.0 nM
Sequence of Serine/threonine-protein kinase Nek11 (Homo sapiens) (Q8NG66 whole entry): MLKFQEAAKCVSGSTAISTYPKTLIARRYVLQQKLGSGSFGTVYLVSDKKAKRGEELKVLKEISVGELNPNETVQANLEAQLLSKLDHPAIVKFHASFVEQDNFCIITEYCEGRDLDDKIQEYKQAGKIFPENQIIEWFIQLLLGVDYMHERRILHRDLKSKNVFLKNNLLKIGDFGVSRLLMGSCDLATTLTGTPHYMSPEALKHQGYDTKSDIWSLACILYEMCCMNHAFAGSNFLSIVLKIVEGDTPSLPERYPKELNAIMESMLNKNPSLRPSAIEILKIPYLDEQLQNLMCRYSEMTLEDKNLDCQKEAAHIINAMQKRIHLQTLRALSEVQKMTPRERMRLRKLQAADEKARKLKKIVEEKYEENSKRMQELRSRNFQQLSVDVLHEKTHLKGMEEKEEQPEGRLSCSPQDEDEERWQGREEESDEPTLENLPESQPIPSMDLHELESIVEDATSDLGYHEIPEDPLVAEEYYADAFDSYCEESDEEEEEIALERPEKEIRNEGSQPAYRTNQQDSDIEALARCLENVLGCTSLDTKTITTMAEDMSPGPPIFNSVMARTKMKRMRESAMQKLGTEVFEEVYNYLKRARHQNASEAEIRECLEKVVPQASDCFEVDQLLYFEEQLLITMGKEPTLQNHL

[33] = system: Mast/stem cell growth factor receptor Kit (Homo sapiens), P10721 [D816H]; details: Compound concentration 1000.0 nM
[34] = target: Ribosomal protein S6 kinase alpha-1 (Homo sapiens) (UniProt Q15418); details: Compound concentration 1000.0 nM
[35] = target: Mitogen-activated protein kinase 13 (Homo sapiens) (UniProt O15264); details: Compound concentration 1000.0 nM
[36] = system: Epidermal growth factor receptor (Homo sapiens), P00533 [UNDEFINED MUTATION]; details: Compound concentration 1000.0 nM; remark: listed apart in the source
[37] = target: Serine/threonine-protein kinase MARK1 (Homo sapiens) (UniProt Q9P0L2); details: Compound concentration 1000.0 nM
[38] = target: Cyclin-dependent kinase 18 (Homo sapiens) (UniProt Q07002); details: Compound concentration 1000.0 nM
Sequence of Cyclin-dependent kinase 18 (Homo sapiens) (Q07002 whole entry): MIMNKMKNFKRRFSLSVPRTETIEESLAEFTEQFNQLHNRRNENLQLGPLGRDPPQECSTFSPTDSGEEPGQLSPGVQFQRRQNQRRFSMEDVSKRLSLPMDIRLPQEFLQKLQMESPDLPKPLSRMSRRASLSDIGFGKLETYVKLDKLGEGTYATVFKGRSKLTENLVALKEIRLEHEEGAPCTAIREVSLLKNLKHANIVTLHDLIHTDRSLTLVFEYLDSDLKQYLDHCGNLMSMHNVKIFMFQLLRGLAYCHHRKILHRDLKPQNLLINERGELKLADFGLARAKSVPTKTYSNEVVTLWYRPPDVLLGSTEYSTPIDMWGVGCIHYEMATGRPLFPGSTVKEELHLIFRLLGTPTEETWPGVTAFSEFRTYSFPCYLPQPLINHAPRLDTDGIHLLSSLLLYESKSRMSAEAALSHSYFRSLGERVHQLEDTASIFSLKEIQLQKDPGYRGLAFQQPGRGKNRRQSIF

[39] = target: B2 bradykinin receptor (Homo sapiens) (UniProt P30411); assay: B2 (h) Eurofins-Cerep binding assay; parameters: ligand concentration 0.3 nM; details: filed as agonist, Compound concentration 10.0 uM
[40] = system: Fibroblast growth factor receptor 3 (Homo sapiens), P22607 [G697C]; details: Compound concentration 1000.0 nM
[41] = target: Sodium- and chloride-dependent GABA transporter 1 (Rattus norvegicus) (UniProt P23978); assay: GABA transporter Eurofins-Cerep binding assay; parameters: ligand concentration 10 nM; details: filed as antagonist, Compound concentration 10.0 uM
[42] = system: Tyrosine-protein kinase ABL1 (Homo sapiens), P00519 [H396P]; details: Compound concentration 1000.0 nM
[43] = target: Tyrosine-protein kinase Mer (Homo sapiens) (UniProt Q12866); details: Compound concentration 1000.0 nM
Sequence of Tyrosine-protein kinase Mer (Homo sapiens) (Q12866 whole entry): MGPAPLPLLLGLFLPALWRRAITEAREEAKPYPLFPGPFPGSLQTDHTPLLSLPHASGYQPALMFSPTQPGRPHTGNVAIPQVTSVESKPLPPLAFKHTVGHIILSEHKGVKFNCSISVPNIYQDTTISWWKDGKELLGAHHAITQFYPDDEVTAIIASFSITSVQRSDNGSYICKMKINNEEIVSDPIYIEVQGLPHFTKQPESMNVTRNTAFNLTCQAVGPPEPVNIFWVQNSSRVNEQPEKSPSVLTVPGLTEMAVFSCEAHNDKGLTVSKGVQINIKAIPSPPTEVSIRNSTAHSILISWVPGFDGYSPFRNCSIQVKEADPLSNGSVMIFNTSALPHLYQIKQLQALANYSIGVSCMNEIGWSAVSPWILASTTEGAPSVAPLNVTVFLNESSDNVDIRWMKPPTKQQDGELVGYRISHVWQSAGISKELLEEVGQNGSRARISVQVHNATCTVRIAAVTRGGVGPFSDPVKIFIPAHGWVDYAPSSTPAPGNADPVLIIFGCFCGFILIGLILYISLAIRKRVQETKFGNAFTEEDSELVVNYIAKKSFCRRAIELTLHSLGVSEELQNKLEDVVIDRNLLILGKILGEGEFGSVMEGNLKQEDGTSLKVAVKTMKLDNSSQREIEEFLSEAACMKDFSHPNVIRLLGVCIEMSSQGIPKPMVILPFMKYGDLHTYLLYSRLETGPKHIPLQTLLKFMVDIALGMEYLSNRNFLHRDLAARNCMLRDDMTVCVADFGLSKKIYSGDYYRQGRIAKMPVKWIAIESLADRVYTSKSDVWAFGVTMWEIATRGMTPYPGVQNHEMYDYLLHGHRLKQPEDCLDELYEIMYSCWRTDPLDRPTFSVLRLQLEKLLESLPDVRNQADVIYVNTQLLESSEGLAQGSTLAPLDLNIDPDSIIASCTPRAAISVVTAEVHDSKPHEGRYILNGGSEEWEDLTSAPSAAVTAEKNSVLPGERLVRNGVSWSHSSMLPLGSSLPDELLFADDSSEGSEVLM

COc1ccc2c(c1)O[C@H](c1ccc(OC)c(OC)c1)C[C@@H]2NC(=O)C1(c2ccc3c(c2)OC(F)(F)O3)CC1 [A-1596584]
6.4%: inhibition at 60 min, 10 µM [27]
82.4%: % Inhibition of Control Specific Binding (Mean n=2) [15]
7%: % Inhibition of Control Specific Binding (Mean n=2) [4]
-15.1%: % Inhibition of Control Specific Binding (Mean n=2) [41]
active: inhibition [3] 85.3%
79.1%: % Inhibition of Control Specific Binding (Mean n=2) [6]
inactive: residual activity [2] 95% | residual activity [5] 92% | residual activity [7] 91% | inhibition [8] 2.35% | residual activity [10] 100% | residual activity [11] 100% | residual activity [12] 56% | residual activity [13] 99% | residual activity [14] 100% | residual activity [16] 89% | residual activity [17] 100% | residual activity [18] 100% | residual activity [20] 100% | residual activity [21] 92% | residual activity [22] 100% | residual activity [23] 100% | residual activity [25] 98% | inhibition [26] 49.9% | residual activity [28] 82% | residual activity [29] 100% | residual activity [30] 85% | residual activity [31] 100% | residual activity [32] 88% | residual activity [33] 100% | residual activity [34] 100% | residual activity [35] 100% | residual activity [36] 100% | residual activity [37] 79% | residual activity [38] 100% | residual activity [40] 93% | residual activity [42] 98% | residual activity [43] 98%
-8.3%: % Inhibition of Control Specific Binding (Mean n=2) [39]
-4%: % Inhibition of Control Specific Binding (Mean n=2) [19]
-3.3%: % Inhibition of Control Specific Binding (Mean n=2) [1]
-14.6%: % Inhibition of Control Specific Binding (Mean n=2) [24]
13.1%: % Inhibition of Control Specific Binding (Mean n=2) [9]

COc1ccc2c(c1)O[C@@H](c1ccc(OC)c(OC)c1)C[C@H]2NC(=O)C1(c2ccc3c(c2)OC(F)(F)O3)CC1 [A-1596586]
active: inhibition [3] 85.8%
95.9%: % Inhibition of Control Specific Binding (Mean n=2) [6]
inactive: residual activity [2] 79% | residual activity [5] 93% | residual activity [7] 86% | inhibition [8] 1.13% | residual activity [10] 100% | residual activity [11] 100% | residual activity [12] 83% | residual activity [13] 90% | residual activity [14] 100% | residual activity [16] 92% | residual activity [17] 89% | residual activity [18] 92% | residual activity [20] 100% | residual activity [21] 99% | residual activity [22] 93% | residual activity [23] 94% | residual activity [25] 100% | inhibition [26] 22.3% | residual activity [28] 67% | residual activity [29] 86% | residual activity [30] 97% | residual activity [31] 94% | residual activity [32] 83% | residual activity [33] 94% | residual activity [34] 98% | residual activity [35] 97% | residual activity [36] 100% | residual activity [37] 100% | residual activity [38] 100% | residual activity [40] 95% | residual activity [42] 86% | residual activity [43] 95%
8.5%: % Inhibition of Control Specific Binding (Mean n=2) [24]
2.9%: % Inhibition of Control Specific Binding (Mean n=2) [19]
9.3%: % Inhibition of Control Specific Binding (Mean n=2) [9]
57.7%: % Inhibition of Control Specific Binding (Mean n=2) [15]
-9.2%: % Inhibition of Control Specific Binding (Mean n=2) [1]
11.7%: % Inhibition of Control Specific Binding (Mean n=2) [4]
-13.5%: % Inhibition of Control Specific Binding (Mean n=2) [39]
-1.1%: inhibition at 60 min, 10 µM [27]
-17.9%: % Inhibition of Control Specific Binding (Mean n=2) [41]
